Calls of active or inactive are those of the source. The calls are words filed in the database; no cut-off is given here.
Key:
[1] = tested on: Bacillus subtilis; assay: Antimicrobial activity against Bacillus subtilis 1021; assay type: functional, organism-based
[2] = tested on: Escherichia coli; assay: Antimicrobial activity against Escherichia coli 2441; assay type: functional, organism-based
[3] = tested on: Staphylococcus epidermidis; assay: Antimicrobial activity against Staphylococcus epidermidis 1917; assay type: functional, organism-based
[4] = tested on: Staphylococcus aureus; assay: Antimicrobial activity against methicillin sensitive Staphylococcus aureus CCARM 0205; assay type: functional, organism-based
[5] = tested on: PANC-1; assay: Cytotoxicity against human PANC-1 cells assessed as reduction in cell viability at 10 to 100 uM incubated for 72 hrs by MTT assay; assay type: functional, cell-based; conditions: dose 10-100 µM
[6] = tested on: Staphylococcus aureus; assay: Antimicrobial activity against methicillin sensitive Staphylococcus aureus CCARM 3090; assay type: functional, organism-based
[7] = tested on: Staphylococcus aureus; assay: Antimicrobial activity against methicillin sensitive Staphylococcus aureus CCARM 0204; assay type: functional, organism-based
[8] = tested on: RAW264.7; assay: Inhibition of nitric oxide production in LPS-activated mouse RAW264.7 cells; assay type: functional, cell-based
[9] = tested on: Salmonella typhimurium; assay: Antimicrobial activity against Salmonella typhimurium 2515; assay type: functional, organism-based; conditions: Salmonella enterica subsp. enterica serovar Typhimurium
[10] = tested on: Staphylococcus aureus; assay: Antimicrobial activity against methicillin sensitive Staphylococcus aureus CCARM 3635; assay type: functional, organism-based
[11] = tested on: PANC-1; assay: Antimetastatic activity in human PANC-1 cells assessed as decrease in migration at 80 uM incubated for 48 hrs by scratch wound healing assay relative to control; assay type: functional; parameters: scale not given: the % may be the effect or the level left

## CC[C@@H](C)[C@H]1NC(=O)c2ccccc2NC(=O)[C@@H]2CCCN2C(=O)[C@@H](CC(C)C)NC(=O)[C@H](C)NC(=O)[C@H]([C@@H](C)O)NC(=O)[C@@H](Cc2ccc(O)cc2)NC1=O
[1]
  Activity: inactive
[2]
  Activity: inactive
[3]
  Activity: inactive
[4]
  Activity: inactive
[5]
  Activity: inactive
[6]
  Activity: inactive
[7]
  Activity: inactive
[8]
  inhibition: inactive
[9]
  Activity: inactive
[10]
  Activity: inactive

## CC[C@@H](C)[C@H]1NC(=O)c2ccccc2NC(=O)[C@@H]2CCCN2C(=O)[C@@H]([C@H](C)CC)NC(=O)[C@H](C)NC(=O)[C@H]([C@@H](C)O)NC(=O)[C@@H](Cc2ccc(O)cc2)NC1=O
[11]
  Activity: 48%
[1]
  Activity: inactive
[2]
  Activity: inactive
[3]
  Activity: inactive
[4]
  Activity: inactive
[5]
  Activity: inactive
[6]
  Activity: inactive
[7]
  Activity: inactive
[8]
  inhibition: inactive
[9]
  Activity: inactive
[10]
  Activity: inactive

## CC[C@@H](C)[C@H]1NC(=O)[C@H](C)NC(=O)[C@H]([C@@H](C)O)NC(=O)[C@@H](Cc2ccc(O)cc2)NC(=O)[C@@H](C(C)C)NC(=O)c2ccccc2NC(=O)[C@@H]2CCCN2C1=O
[11]
  Activity: 52%
[1]
  Activity: inactive
[2]
  Activity: inactive
[3]
  Activity: inactive
[4]
  Activity: inactive
[5]
  Activity: inactive
[6]
  Activity: inactive
[7]
  Activity: inactive
[8]
  inhibition: inactive
[9]
  Activity: inactive
[10]
  Activity: inactive

Reference: ChEMBL document CHEMBL5620439, “Talaromides A-C, Bioactive Cyclic Heptapeptides from Talaromyces siglerae Isolated from a Marine Sponge” (2024)
